In PubChem BioAssay (NCI):
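Tested at 5 concentrations; 48 h exposure; 96-well plates; endpoints linearly interpolated, else capped at highest concentration. GI50: concentration for 50% inhibition of growth. TGI: concentration producing complete growth inhibition.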

Tests used:
Test in all cases: DTP human tumour cell line panel, 48 h
786-0 renal = system: 786-0 renal
A498 renal = system: A498 renal
A549 NSCLC = system: A549 NSCLC
ACHN renal = system: ACHN renal
BT-549 breast = system: BT-549 breast
CAKI-1 renal = system: CAKI-1 renal
CCRF-CEM leukemia = system: CCRF-CEM leukemia
COLO 205 colon = system: COLO 205 colon
DU-145 prostate = system: DU-145 prostate
EKVX NSCLC = system: EKVX NSCLC
HCC-2998 colon = system: HCC-2998 colon
HCT-116 colon = system: HCT-116 colon
HCT-15 colon = system: HCT-15 colon
HL-60(TB) leukemia = system: HL-60(TB) leukemia
HOP-62 NSCLC = system: HOP-62 NSCLC
HOP-92 NSCLC = system: HOP-92 NSCLC
HS 578T breast = system: HS 578T breast
HT29 colon = system: HT29 colon
IGROV1 ovarian = system: IGROV1 ovarian
K-562 leukemia = system: K-562 leukemia
KM12 colon = system: KM12 colon
LOX IMVI melanoma = system: LOX IMVI melanoma
M14 melanoma = system: M14 melanoma
MALME-3M melanoma = system: MALME-3M melanoma
MCF7 breast = system: MCF7 breast
MDA-MB-231 breast = system: MDA-MB-231 breast
MDA-MB-435 = system: MDA-MB-435
MDA-MB-468 breast = system: MDA-MB-468 breast
MOLT-4 leukemia = system: MOLT-4 leukemia
NCI-H226 lung = system: NCI-H226 lung
NCI-H23 lung = system: NCI-H23 lung
NCI-H460 lung = system: NCI-H460 lung
NCI-H522 lung = system: NCI-H522 lung
NCI/ADR-RES ovarian = system: NCI/ADR-RES ovarian
OVCAR-3 ovarian = system: OVCAR-3 ovarian
OVCAR-4 ovarian = system: OVCAR-4 ovarian
OVCAR-5 ovarian = system: OVCAR-5 ovarian
OVCAR-8 ovarian = system: OVCAR-8 ovarian
PC-3 prostate = system: PC-3 prostate
RPMI-8226 leukemia = system: RPMI-8226 leukemia
RXF 393 renal = system: RXF 393 renal
SF-268 CNS = system: SF-268 CNS
SF-295 CNS = system: SF-295 CNS
SF-539 CNS = system: SF-539 CNS
SK-MEL-2 melanoma = system: SK-MEL-2 melanoma
SK-MEL-28 melanoma = system: SK-MEL-28 melanoma
SK-MEL-5 melanoma = system: SK-MEL-5 melanoma
SK-OV-3 ovarian = system: SK-OV-3 ovarian
SN12C renal = system: SN12C renal
SNB-19 CNS = system: SNB-19 CNS
SNB-75 CNS = system: SNB-75 CNS
SR leukemia = system: SR leukemia
SW-620 colon = system: SW-620 colon
T-47D breast = system: T-47D breast
TK-10 renal = system: TK-10 renal
U251 CNS = system: U251 CNS
UACC-257 melanoma = system: UACC-257 melanoma
UACC-62 melanoma = system: UACC-62 melanoma
UO-31 renal = system: UO-31 renal

`O=C1Nc2cc(-c3ccc(NS(=O)(=O)c4ccc(-c5ccccc5)cc4)cc3)ccc2/C1=C/c1ccc[nH]1` was tested, and the GI50 (786-0 renal) was 3.91 µM, the TGI (786-0 renal) was 13.9 µM and the GI50 (A498 renal) was 12.6 µM. It also gave a TGI (A498 renal) of 25.1 µM, a GI50 (A549 NSCLC) of 1.82 µM and a TGI (A549 NSCLC) of 4.86 µM. For the same molecule, the GI50 (ACHN renal) was 6.16 µM, the TGI (ACHN renal) was 18.7 µM and the GI50 (BT-549 breast) was 2.49 µM. It also gave a TGI (BT-549 breast) of 7.75 µM, a GI50 (CAKI-1 renal) of 5.64 µM and a TGI (CAKI-1 renal) of 18.4 µM. It also gave a GI50 (CCRF-CEM leukemia) of 5.82 µM, a TGI (CCRF-CEM leukemia) of 18.6 µM and a GI50 (COLO 205 colon) of 3.7 µM. The TGI (COLO 205 colon) was 14 µM, the GI50 (DU-145 prostate) was 2.09 µM and the TGI (DU-145 prostate) was 4.59 µM. It also gave a GI50 (EKVX NSCLC) of 0.225 µM, a TGI (EKVX NSCLC) of 8.94 µM and a GI50 (HCC-2998 colon) of 4.88 µM. It also gave a TGI (HCC-2998 colon) of 28.4 µM, a GI50 (HCT-116 colon) of 3.28 µM and a TGI (HCT-116 colon) of 11.2 µM. For the same molecule, the GI50 (HCT-15 colon) was 2.26 µM, the TGI (HCT-15 colon) was 7.86 µM and the GI50 (HL-60(TB) leukemia) was 7.67 µM. For the same molecule, the TGI (HL-60(TB) leukemia) was 31.7 µM, the GI50 (HOP-62 NSCLC) was 8.59 µM and the TGI (HOP-62 NSCLC) was 21.8 µM. The GI50 (HOP-92 NSCLC) was 2.2 µM, the TGI (HOP-92 NSCLC) was 7.22 µM and the GI50 (HS 578T breast) was 12.2 µM. It also gave a TGI (HS 578T breast) of 56.7 µM, a GI50 (HT29 colon) of 2.42 µM and a TGI (HT29 colon) of 6.71 µM. For the same molecule, the GI50 (IGROV1 ovarian) was 8.34 µM, the TGI (IGROV1 ovarian) was 22.2 µM and the GI50 (K-562 leukemia) was 3.8 µM. The TGI (K-562 leukemia) was 16.6 µM, the GI50 (KM12 colon) was 2.48 µM and the TGI (KM12 colon) was 18.7 µM. The GI50 (LOX IMVI melanoma) was 2.59 µM, the TGI (LOX IMVI melanoma) was 6.82 µM and the GI50 (M14 melanoma) was 4.7 µM. It also gave a TGI (M14 melanoma) of 16.8 µM, a GI50 (MALME-3M melanoma) of 2.79 µM and a TGI (MALME-3M melanoma) of 9.7 µM. It also gave a GI50 (MCF7 breast) of 0.0746 µM, a TGI (MCF7 breast) of 1.54 µM and a GI50 (MDA-MB-231 breast) of 2.96 µM. The TGI (MDA-MB-231 breast) was 11.6 µM, the GI50 (MDA-MB-435) was 5.71 µM and the TGI (MDA-MB-435) was 21 µM. It also gave a GI50 (MDA-MB-468 breast) of 0.0402 µM, a TGI (MDA-MB-468 breast) of 1.04 µM and a GI50 (MOLT-4 leukemia) of 3.88 µM. The TGI (MOLT-4 leukemia) was 17.7 µM, the GI50 (NCI-H226 lung) was 1.9 µM and the TGI (NCI-H226 lung) was 14.8 µM. The GI50 (NCI-H23 lung) was 1.2 µM, the TGI (NCI-H23 lung) was 5.91 µM and the GI50 (NCI-H460 lung) was 0.351 µM. For the same molecule, the TGI (NCI-H460 lung) was 2.13 µM, the GI50 (NCI-H522 lung) was 2.27 µM and the TGI (NCI-H522 lung) was 7.94 µM. It also gave a GI50 (NCI/ADR-RES ovarian) of 6.29 µM, a TGI (NCI/ADR-RES ovarian) of 30.9 µM and a GI50 (OVCAR-3 ovarian) of 1.94 µM. The TGI (OVCAR-3 ovarian) was 4.65 µM, the GI50 (OVCAR-4 ovarian) was 2.1 µM and the TGI (OVCAR-4 ovarian) was 11.9 µM. The GI50 (OVCAR-5 ovarian) was 3.42 µM, the TGI (OVCAR-5 ovarian) was 14.3 µM and the GI50 (OVCAR-8 ovarian) was 3.45 µM. It also gave a TGI (OVCAR-8 ovarian) of 12.2 µM, a GI50 (PC-3 prostate) of 3.27 µM and a TGI (PC-3 prostate) of 18.1 µM. It also gave a GI50 (RPMI-8226 leukemia) of 3.09 µM, a TGI (RPMI-8226 leukemia) of 15.7 µM and a GI50 (RXF 393 renal) of 2.48 µM. For the same molecule, the TGI (RXF 393 renal) was 5.56 µM, the GI50 (SF-268 CNS) was 4.26 µM and the TGI (SF-268 CNS) was 16.3 µM. The GI50 (SF-295 CNS) was 7.29 µM, the TGI (SF-295 CNS) was 19.8 µM and the GI50 (SF-539 CNS) was 3.66 µM. It also gave a TGI (SF-539 CNS) of 14.7 µM, a GI50 (SK-MEL-2 melanoma) of 11.8 µM and a TGI (SK-MEL-2 melanoma) of 24.4 µM. It also gave a GI50 (SK-MEL-28 melanoma) of 3.77 µM, a TGI (SK-MEL-28 melanoma) of 13.5 µM and a GI50 (SK-MEL-5 melanoma) of 6.91 µM. For the same molecule, the TGI (SK-MEL-5 melanoma) was 21.8 µM, the GI50 (SK-OV-3 ovarian) was 13.3 µM and the TGI (SK-OV-3 ovarian) was 26 µM. The GI50 (SN12C renal) was 3.07 µM, the TGI (SN12C renal) was 12 µM and the GI50 (SNB-19 CNS) was 5.91 µM. It also gave a TGI (SNB-19 CNS) of 18.7 µM, a GI50 (SNB-75 CNS) of 12.8 µM and a TGI (SNB-75 CNS) of 35.6 µM. It also gave a GI50 (SR leukemia) of 1.9 µM, a TGI (SR leukemia) of 10.9 µM and a GI50 (SW-620 colon) of 2.45 µM. It also gave a TGI (SW-620 colon) of 6.56 µM, a GI50 (T-47D breast) of 0.136 µM and a TGI (T-47D breast) of 3.57 µM. The GI50 (TK-10 renal) was 2.66 µM, the TGI (TK-10 renal) was 11 µM and the GI50 (U251 CNS) was 2.18 µM. It also gave a TGI (U251 CNS) of 5.73 µM, a GI50 (UACC-257 melanoma) of 5.84 µM and a TGI (UACC-257 melanoma) of 20.4 µM. The GI50 (UACC-62 melanoma) was 5.37 µM, the TGI (UACC-62 melanoma) was 19.7 µM and the GI50 (UO-31 renal) was 10.7 µM. The TGI (UO-31 renal) was 29.1 µM.
